This note sets out measurements from ChEMBL document CHEMBL3797047, “Discovery of indirubin derivatives as new class of DRAK2 inhibitors from high throughput screening” (Bioorg Med Chem Lett, 2016).

In assay [1] the target is T1, Epidermal growth factor receptor (Homo sapiens, UniProt P00533). The assay can be described thus: Inhibition of EGFR (746 to 750) deletion mutant (unknown origin) using peptide substrate incubated for 30 mins by europium donor dye-based plate reader analysis. It counts as protein assay.
Target sequence in this assay (P00533 25-1210 limits assumed, stated change not applied): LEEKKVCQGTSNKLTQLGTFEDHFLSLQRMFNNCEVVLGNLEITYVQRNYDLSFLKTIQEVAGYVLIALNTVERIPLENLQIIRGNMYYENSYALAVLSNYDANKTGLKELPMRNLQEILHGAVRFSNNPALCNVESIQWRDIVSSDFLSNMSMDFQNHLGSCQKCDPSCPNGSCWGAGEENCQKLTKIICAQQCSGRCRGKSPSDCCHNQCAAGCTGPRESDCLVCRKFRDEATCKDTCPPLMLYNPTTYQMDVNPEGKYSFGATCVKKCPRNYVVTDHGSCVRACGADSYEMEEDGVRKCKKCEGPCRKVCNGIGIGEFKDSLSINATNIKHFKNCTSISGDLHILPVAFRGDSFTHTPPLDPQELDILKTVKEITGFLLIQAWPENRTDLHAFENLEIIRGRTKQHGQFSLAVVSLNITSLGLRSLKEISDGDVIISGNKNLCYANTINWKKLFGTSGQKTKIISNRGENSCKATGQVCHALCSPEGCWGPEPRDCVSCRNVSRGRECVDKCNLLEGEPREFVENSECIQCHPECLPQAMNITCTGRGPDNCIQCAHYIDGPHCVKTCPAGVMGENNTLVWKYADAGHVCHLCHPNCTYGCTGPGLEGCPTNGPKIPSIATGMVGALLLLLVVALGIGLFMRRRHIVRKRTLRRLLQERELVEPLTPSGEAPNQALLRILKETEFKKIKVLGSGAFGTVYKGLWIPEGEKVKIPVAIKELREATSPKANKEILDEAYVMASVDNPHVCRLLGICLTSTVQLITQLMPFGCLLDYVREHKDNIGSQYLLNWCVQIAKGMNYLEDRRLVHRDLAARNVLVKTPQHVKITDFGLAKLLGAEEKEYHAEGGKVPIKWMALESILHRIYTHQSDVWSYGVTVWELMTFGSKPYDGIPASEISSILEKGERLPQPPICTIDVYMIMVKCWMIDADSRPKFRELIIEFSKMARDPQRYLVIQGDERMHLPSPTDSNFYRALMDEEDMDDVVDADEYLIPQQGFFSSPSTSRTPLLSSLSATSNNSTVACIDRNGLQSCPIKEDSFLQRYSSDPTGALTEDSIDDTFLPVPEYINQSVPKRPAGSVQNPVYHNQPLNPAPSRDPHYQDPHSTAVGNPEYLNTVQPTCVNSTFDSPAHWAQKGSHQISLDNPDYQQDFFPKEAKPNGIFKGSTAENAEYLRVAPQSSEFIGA
The target in assay [2] is T2, Serine/threonine-protein kinase 17A (Homo sapiens, UniProt Q9UEE5).
T2 sequence (Q9UEE5 whole entry): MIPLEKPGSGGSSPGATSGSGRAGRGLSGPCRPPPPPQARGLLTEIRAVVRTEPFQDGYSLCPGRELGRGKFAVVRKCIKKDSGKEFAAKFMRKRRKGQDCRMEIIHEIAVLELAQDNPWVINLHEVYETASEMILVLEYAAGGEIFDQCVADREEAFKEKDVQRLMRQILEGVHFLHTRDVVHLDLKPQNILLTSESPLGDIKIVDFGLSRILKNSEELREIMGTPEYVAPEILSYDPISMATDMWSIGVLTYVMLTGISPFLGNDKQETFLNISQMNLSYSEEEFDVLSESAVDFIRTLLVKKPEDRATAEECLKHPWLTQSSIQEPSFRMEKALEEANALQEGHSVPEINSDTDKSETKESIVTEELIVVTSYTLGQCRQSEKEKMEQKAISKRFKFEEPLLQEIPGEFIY
The assay can be described thus: Inhibition of DRAK1 (unknown origin).

Assay [3] has as its target T3, Serine/threonine-protein kinase 17B (Homo sapiens, UniProt O94768).
T3 sequence (O94768 whole entry): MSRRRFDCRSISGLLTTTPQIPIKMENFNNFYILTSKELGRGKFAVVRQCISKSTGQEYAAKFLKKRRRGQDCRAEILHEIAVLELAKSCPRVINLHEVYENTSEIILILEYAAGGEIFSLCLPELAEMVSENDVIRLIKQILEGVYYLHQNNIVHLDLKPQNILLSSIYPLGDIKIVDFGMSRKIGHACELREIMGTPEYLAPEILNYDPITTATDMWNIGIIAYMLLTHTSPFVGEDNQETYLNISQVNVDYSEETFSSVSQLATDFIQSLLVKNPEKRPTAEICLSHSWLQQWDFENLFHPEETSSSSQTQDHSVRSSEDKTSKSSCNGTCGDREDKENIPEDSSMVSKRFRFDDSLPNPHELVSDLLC
Briefly: Inhibition of DRAK2 (unknown origin) using MRLC3 peptide as substrate incubated for 2 hrs by ADP-Glo kinase assay. A general note: ADP-Glo first removes unused ATP, then detects ADP through luciferase.

The target of the next assay is Insulin receptor (Homo sapiens, UniProt P06213). The assay can be described thus: Inhibition of IRK (unknown origin) using peptide substrate incubated for 30 mins by europium donor dye-based plate reader analysis.
Insulin receptor, sequence (P06213 28-758 limits assumed): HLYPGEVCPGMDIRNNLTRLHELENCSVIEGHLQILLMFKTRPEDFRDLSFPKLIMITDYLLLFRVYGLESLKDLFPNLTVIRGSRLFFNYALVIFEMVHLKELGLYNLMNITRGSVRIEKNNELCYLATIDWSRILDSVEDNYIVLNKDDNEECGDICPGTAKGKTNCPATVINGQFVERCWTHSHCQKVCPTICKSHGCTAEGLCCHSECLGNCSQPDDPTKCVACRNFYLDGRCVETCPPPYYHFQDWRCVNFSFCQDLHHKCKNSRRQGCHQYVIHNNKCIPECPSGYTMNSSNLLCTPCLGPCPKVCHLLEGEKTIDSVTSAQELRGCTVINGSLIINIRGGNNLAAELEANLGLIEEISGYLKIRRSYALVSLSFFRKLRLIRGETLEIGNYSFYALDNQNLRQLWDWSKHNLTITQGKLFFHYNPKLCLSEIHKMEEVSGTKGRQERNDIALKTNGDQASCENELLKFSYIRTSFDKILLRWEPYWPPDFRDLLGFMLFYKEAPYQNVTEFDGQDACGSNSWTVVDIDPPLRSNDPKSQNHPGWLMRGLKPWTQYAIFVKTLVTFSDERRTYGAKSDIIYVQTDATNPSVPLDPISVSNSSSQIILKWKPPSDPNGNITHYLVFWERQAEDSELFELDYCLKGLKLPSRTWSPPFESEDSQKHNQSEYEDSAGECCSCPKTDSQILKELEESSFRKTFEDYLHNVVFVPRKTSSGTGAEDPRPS
Insulin receptor, sequence (P06213 763-1382 limits assumed): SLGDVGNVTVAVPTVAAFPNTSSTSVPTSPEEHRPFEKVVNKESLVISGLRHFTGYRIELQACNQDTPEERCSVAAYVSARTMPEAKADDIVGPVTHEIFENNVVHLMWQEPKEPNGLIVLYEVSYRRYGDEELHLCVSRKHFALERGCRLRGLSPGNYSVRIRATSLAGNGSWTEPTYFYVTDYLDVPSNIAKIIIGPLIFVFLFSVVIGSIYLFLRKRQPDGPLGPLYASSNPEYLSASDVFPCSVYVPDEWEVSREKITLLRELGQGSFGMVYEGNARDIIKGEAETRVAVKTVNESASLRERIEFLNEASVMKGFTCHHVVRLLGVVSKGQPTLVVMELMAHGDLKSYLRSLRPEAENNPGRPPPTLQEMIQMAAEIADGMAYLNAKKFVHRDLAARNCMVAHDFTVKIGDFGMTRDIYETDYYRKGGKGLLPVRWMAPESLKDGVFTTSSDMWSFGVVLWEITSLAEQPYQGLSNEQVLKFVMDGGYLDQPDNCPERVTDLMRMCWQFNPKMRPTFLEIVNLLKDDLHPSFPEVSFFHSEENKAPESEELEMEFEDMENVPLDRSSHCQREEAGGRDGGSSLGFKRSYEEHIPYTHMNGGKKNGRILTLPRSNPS
Assay [4] deals with Maternal embryonic leucine zipper kinase (Homo sapiens, UniProt Q14680). Briefly: Inhibition of MELK (unknown origin) using peptide substrate incubated for 30 mins by europium donor dye-based plate reader analysis.
In assay [5] the target is T1, Epidermal growth factor receptor. Briefly: Inhibition of EGFR (unknown origin) using peptide substrate incubated for 30 mins by europium donor dye-based plate reader analysis.
Target sequence in this assay (P00533 whole entry): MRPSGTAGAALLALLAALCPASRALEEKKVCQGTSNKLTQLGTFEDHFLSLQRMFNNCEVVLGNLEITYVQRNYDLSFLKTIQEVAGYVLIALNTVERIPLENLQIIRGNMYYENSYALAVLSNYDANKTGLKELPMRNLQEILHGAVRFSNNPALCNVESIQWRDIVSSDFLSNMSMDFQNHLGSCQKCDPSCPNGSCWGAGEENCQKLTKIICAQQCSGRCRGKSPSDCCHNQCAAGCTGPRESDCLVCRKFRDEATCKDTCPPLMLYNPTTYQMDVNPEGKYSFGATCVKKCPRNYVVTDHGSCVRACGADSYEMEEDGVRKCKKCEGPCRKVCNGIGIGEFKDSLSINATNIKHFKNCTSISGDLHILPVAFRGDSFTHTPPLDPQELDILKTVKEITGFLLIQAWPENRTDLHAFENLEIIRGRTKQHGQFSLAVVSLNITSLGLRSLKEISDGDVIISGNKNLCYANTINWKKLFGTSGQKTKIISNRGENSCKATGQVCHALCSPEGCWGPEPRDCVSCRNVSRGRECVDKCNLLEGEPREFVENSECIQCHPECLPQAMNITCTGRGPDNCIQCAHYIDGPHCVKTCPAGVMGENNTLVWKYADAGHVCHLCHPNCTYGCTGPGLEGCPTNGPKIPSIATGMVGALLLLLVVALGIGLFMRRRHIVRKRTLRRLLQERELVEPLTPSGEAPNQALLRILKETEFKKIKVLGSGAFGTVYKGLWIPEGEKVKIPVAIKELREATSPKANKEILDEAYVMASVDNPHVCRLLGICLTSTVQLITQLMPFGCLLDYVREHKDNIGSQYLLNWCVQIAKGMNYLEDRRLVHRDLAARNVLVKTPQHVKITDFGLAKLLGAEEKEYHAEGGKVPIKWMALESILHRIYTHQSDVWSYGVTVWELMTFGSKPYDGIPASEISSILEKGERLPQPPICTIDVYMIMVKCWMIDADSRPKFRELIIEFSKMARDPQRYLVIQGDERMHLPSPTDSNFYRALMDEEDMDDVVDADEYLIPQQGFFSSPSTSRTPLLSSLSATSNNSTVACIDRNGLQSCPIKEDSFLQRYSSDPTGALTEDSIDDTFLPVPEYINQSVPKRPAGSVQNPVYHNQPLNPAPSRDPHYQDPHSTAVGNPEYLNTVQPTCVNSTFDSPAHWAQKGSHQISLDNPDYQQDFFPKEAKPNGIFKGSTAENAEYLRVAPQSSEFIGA
In assay [6] the target is Death-associated protein kinase 1 (Homo sapiens, UniProt P53355). The assay can be described thus: Inhibition of DAPK1 (unknown origin).
The target in assay [7] is Death-associated protein kinase 3 (Homo sapiens, UniProt O43293). The assay can be described thus: Inhibition of DAPK3 (unknown origin).
Death-associated protein kinase 3, sequence (O43293 whole entry): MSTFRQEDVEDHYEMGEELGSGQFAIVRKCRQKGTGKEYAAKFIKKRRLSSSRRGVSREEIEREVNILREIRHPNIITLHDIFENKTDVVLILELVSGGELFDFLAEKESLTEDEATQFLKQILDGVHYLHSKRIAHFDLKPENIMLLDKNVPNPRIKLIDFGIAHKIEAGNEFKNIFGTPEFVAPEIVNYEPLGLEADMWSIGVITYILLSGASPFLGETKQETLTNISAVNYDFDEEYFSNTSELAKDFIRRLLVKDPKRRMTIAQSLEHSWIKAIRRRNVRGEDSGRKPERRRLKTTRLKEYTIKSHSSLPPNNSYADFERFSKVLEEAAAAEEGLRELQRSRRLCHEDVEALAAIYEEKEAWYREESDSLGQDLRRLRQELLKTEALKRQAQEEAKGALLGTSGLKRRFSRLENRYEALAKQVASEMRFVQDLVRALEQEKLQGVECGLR
A further assay deals with Activated CDC42 kinase 1 (Homo sapiens, UniProt Q07912). Briefly: Inhibition of AcK1 (unknown origin) using peptide substrate incubated for 30 mins by europium donor dye-based plate reader analysis.
The target in assay [8] is Death-associated protein kinase 2 (Homo sapiens, UniProt Q9UIK4). The assay can be described thus: Inhibition of DAPK2 (unknown origin).
Death-associated protein kinase 2, sequence (Q9UIK4 whole entry): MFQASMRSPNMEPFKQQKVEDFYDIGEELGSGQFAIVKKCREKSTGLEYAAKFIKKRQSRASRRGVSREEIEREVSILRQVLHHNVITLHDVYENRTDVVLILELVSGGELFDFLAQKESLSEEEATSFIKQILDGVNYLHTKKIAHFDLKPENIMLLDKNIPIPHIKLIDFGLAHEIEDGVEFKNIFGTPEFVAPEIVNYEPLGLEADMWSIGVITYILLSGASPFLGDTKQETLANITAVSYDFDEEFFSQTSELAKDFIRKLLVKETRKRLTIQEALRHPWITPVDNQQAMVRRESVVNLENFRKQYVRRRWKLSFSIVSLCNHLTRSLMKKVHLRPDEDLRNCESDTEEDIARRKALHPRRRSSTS
Assay [9] has as its target ALK tyrosine kinase receptor (Homo sapiens, UniProt Q9UM73). The assay can be described thus: Inhibition of ALK (unknown origin) using peptide substrate incubated for 30 mins by europium donor dye-based plate reader analysis.
The target in assay [10] is Hepatocyte growth factor receptor (Homo sapiens, UniProt P08581). The assay can be described thus: Inhibition of c-MET (unknown origin) using peptide substrate incubated for 30 mins by europium donor dye-based plate reader analysis.
For assay [11], the target named is T3, Serine/threonine-protein kinase 17B. Briefly: Competitive inhibition of DRAK2 (unknown origin) using MRLC3 peptide as substrate incubated for 2 hrs by Lineweaver-Burk plot analysis in presence of ATP.

A word on the IC50: it is the point on the concentration scale where inhibition reaches its midpoint. `CCCC(=O)Nc1ccc2c(c1)/C(=C1/Nc3ccccc3/C1=N\O)C(=O)N2`: the IC50 in assay [1] was 8000 nM; in [2], 12 nM; in assay [3] it was 10 nM; against Insulin receptor, over 10000 nM; in assay [4], 1000 nM; in [5], over 10000 nM. In addition, the half-inhibitory concentration (IC50) in [6] is 510 nM; in [7] it was 510 nM; against Activated CDC42 kinase 1, over 10000 nM; in assay [8], 590 nM; in assay [9], over 10000 nM; in assay [10], over 10000 nM.

Take `O=C(COc1cccc(Cl)c1)Nc1ccc2c(c1)/C(=C1/Nc3ccccc3/C1=N\O)C(=O)N2`: the IC50 in assay [2] was 460 nM; in assay [3], 950 nM.

For `O=C1Nc2ccc(NC(=O)c3ccc([N+](=O)[O-])cc3)cc2/C1=C1/Nc2ccccc2/C1=N\O`, the IC50 in [2] was 500 nM; in [3], 1300 nM.

As for `O=C1Nc2ccc(F)cc2/C1=C1/Nc2ccccc2C1=O`, the IC50 in assay [3] was over 10000 nM.

In assay [3], `O=C1Nc2ccccc2/C1=C1/Nc2cccc(Br)c2C1=O` yielded an IC50 of over 10000 nM.

Regarding `O=C1Nc2ccc(I)cc2/C1=C1/Nc2ccccc2C1=O`, the half-inhibitory concentration (IC50) in assay [3] amounted to 6200 nM.

As to `Cc1cc(C)c2c(c1)/C(=C1/Nc3ccccc3C1=O)C(=O)N2`, in [3], the IC50 is over 10000 nM.

For `O=C1Nc2ccc(NC(=O)c3cc([N+](=O)[O-])cc([N+](=O)[O-])c3)cc2/C1=C1/Nc2ccccc2/C1=N\O`, the IC50 in assay [2] was 24 nM; in [3] it was 77 nM.

As for `Nc1ccc2c(c1)/C(=C1/Nc3ccccc3C1=O)C(=O)N2`, in assay [3], the IC50 is 1400 nM.

`O=C1Nc2ccc(F)cc2/C1=C1/Nc2ccccc2/C1=N\O` came in with an IC50 in assay [3] of 620 nM.

`O=C1Nc2ccc([N+](=O)[O-])cc2/C1=C1/Nc2cccc(Br)c2C1=O` gave an IC50 in assay [3] of over 10000 nM.

Regarding `O=C1Nc2ccc(NC(=O)c3ccc(F)cc3)cc2/C1=C1/Nc2ccccc2/C1=N\O`, the values for the IC50 in [2] and in [3] were 780 nM and 1200 nM, respectively.

As to `O=C1Nc2ccccc2/C1=C1/Nc2ccccc2/C1=N\O`, inhibition in [3] was half-maximal at 710 nM (IC50).

Turning to `O=C1Nc2ccc(NC(=O)c3cccc4ccccc34)cc2/C1=C1/Nc2ccccc2/C1=N\O`, the results for the 50% inhibitory concentration (IC50) in assay [2] and in assay [3] were 700 nM and 1500 nM, respectively.

As to `O=C1Nc2ccc(NC(=O)c3ccc(Cl)cc3)cc2/C1=C1/Nc2ccccc2/C1=N\O`, the IC50 in assay [2] turned out to be 3000 nM; in assay [3] it was 3200 nM.

With `O=C1Nc2ccc(NC(=O)C3CC3)cc2/C1=C1/Nc2ccccc2/C1=N\O`, the IC50 in assay [2] was found to be 21 nM; in assay [3] it was 8 nM; in assay [6] it was 140 nM; in assay [7], 140 nM; in assay [8], 170 nM.

Consider `O=C1Nc2ccc(NC(=O)C3CCCCC3)cc2/C1=C1/Nc2ccccc2/C1=N\O`, for which the IC50 in [2] is 110 nM; in [3], 120 nM.

As for `O=C1Nc2ccc(NC(=O)c3ccccc3F)cc2/C1=C1/Nc2ccccc2/C1=N\O`, the half-maximal inhibitory concentration (IC50) came out at 250 nM in assay [2] and 290 nM in assay [3].

For the molecule `Cc1cc(Cl)cc2c1NC(=O)/C2=C1\Nc2ccccc2\C1=N/O`, in assay [3], the IC50 is over 10000 nM.

What is called Ki is the equilibrium dissociation constant of an inhibitor or competing ligand from its target. Take `CCCCC(=O)Nc1ccc2c(c1)/C(=C1/Nc3ccccc3/C1=N\O)C(=O)N2`: the IC50 in assay [1] is over 10000 nM; in assay [2], 51 nM; in assay [3] it was 3 nM; against Insulin receptor, over 10000 nM; in assay [4] it was over 10000 nM; in assay [5], over 10000 nM. Also, the IC50 is 1800 nM in [6]; 1800 nM in assay [7]; over 10000 nM at Activated CDC42 kinase 1; 2300 nM in assay [8]; over 10000 nM in assay [9]; over 10000 nM in [10]. Also, the Ki in assay [11] amounted to 0.26 nM.

On to `CC(C)(C)C(=O)Nc1ccc2c(c1)/C(=C1/Nc3ccccc3/C1=N\O)C(=O)N2`, for which the IC50 in [1] was over 10000 nM; in assay [2], 32 nM; in assay [3] it was 21 nM; against Insulin receptor it was over 10000 nM; in [4], 2800 nM; in [5] it was over 10000 nM. The IC50 in assay [6] is 700 nM; in [7] it was 700 nM; on Activated CDC42 kinase 1, over 10000 nM; in assay [8], 830 nM; in [9], over 10000 nM; in [10], over 10000 nM.

As for `Cc1cc(Cl)cc2c1NC(=O)/C2=C1\Nc2ccccc2C1=O`, the IC50 in assay [3] is over 10000 nM.

Take `O=C(/C=C/c1ccccc1)Nc1ccc2c(c1)/C(=C1/Nc3ccccc3/C1=N\O)C(=O)N2`: the IC50 in assay [2] came out at 1100 nM; in assay [3], 700 nM.

With `Cc1ccc(C(=O)Nc2ccc3c(c2)/C(=C2/Nc4ccccc4/C2=N\O)C(=O)N3)cc1`, the IC50 in assay [2] and in assay [3] was 1300 nM in each case.

Take `COc1ccc(C(=O)Nc2ccc3c(c2)/C(=C2/Nc4ccccc4/C2=N\O)C(=O)N3)cc1`: the IC50 in [2] was found to be 360 nM; in assay [3], 330 nM.

With `O=C1Nc2ccc(NC(=O)c3ccccc3C(F)(F)F)cc2/C1=C1/Nc2ccccc2/C1=N\O`, the figures for the IC50 in assay [2] and in assay [3] were 320 nM and 120 nM, respectively.

The molecule `Cc1ccc2c(c1)/C(=C1/Nc3ccccc3C1=O)C(=O)N2` showed an IC50 in assay [3] of over 10000 nM.

As for `O=C1Nc2ccc(NC(=O)c3ccccc3)cc2/C1=C1/Nc2ccccc2/C1=N\O`, the IC50 in assay [2] turned out to be 360 nM; in assay [3] it was 200 nM.

For `CC(C)(C)CC(=O)Nc1ccc2c(c1)/C(=C1/Nc3ccccc3/C1=N\O)C(=O)N2`, the IC50 was 24 nM in assay [2]; 14 nM in assay [3]; over 10000 nM in assay [6]; over 10000 nM in assay [7]; over 10000 nM in assay [8].

With `O=C1Nc2ccc(Cl)cc2/C1=C1/Nc2ccccc2C1=O`, the IC50 in assay [3] was over 10000 nM.

Take `O=C1Nc2ccccc2/C1=C1/Nc2ccccc2C1=O` [INDIRUBIN]: the IC50 in assay [3] was over 10000 nM.

For the molecule `Nc1ccc2c(c1)/C(=C1/Nc3ccccc3/C1=N\O)C(=O)N2`, the IC50 in [3] worked out at 250 nM.

For `CC(C)=CC(=O)Nc1ccc2c(c1)/C(=C1/Nc3ccccc3/C1=N\O)C(=O)N2`, the IC50 is 120 nM in assay [2]; 14 nM in assay [3]; 450 nM in assay [6]; 450 nM in [7]; 570 nM in [8].
